Source: patent US11498920B2, “4-(1H-imidazol-5-yl)-1H-pyrrolo[2, 3-b] pyridines for use in the treatment of leukaemias, lymphomas and solid tumors” (MASARYKOVA UNIVERZITA, priority 2018, dated 2022)

Legend:
Format in all cases: cell-based
[1] = test system: Maver-1 cells (mantle cell lymphoma); experiment: Cytotoxicity, TMRE flow cytometry viability, Maver-1 cells (Example II.1); conditions: Homo sapiens, Maver1, 24 hours, TMRE positive cells normalized to control, ratio to PF670462, <1 = higher cytotoxicity than PF670462, read-out: Viability of cells, Compound of formula I (100 μM), relative to PF670462 (100 μM), Maver-1 cells (mantle cell lymphoma)
Maver1 = experiment: Cytotoxicity on panel of cell lines, TMRE viability (Example II.2); conditions: Homo sapiens, 24 hours, mean, control = 1, read-out: cell viability relative to control, Maver1 (MCL)
Procedure: (§1) The leukemia and lymphoma-derived cell lines [MEC-1 cell line (derived from chronic lymphocytic leukemia—CLL), Nalm-16 (acute lymphocytic leukemia—ALL), K562 (chronic myeloid leukemia—CML), HL-60 (acute myeloid leukemia—AML), Maver-1 and Mino (mantle cell lymphoma—MCL), BL-41 (Burkitt lymphoma—BL), WSU-NHL (follicular lymphoma—FL), SUDHL (diffuse large B-cell lymphoma—DLBCL)], primary CLL cells and nonmalignant control primary cells were cultured in suspension in flasks under the following conditions: RPMI 1640 medium (Hyclone) supplemented with 10% fetal bovine serum (FBS, Gibco) and 1% penicillin/streptomycin (Life Technologies), 37° C., 5% CO2 and 95% relative humidity, with optimal culture cell density 5×10^6 cells/mL in case of primary cells and 0.5-1×10^6 cells/mL in case of cell lines. The adherent cell lines [A375 (derived from malignant melanoma), MDA-MB-231 and MCF-7 (breast cancer), MIA-PA-CA and PANC1 (pancreatic cancer), PC3 (prostate cancer), OVCAR4 (ovarian cancer) and HEPG2 (hepatocellular carcinoma)] were cultured on plates under the same conditions using RPMI1640 or DMEM medium (Gibco) according to instructions provided by the distributor (DSMZ/ATCC).
(§2) The tested cell lines were incubated with inhibitors at 30 μM concentration or corresponding amount of solvent (DMSO, Sigma Aldrich) in standard culture conditions, seeded as 10^5 cells/500 μl per well in a 24-well plate. Experiments were performed in technical duplicates and 2-3 biological repetitions per cell line. Viability of cells was assessed after 24 hours.
(§3) Relative values are presented as a mean value, showing ratio to the effect of control. Relative value <1=lower viability than control condition.

MDA-MB-231 = experiment: as above; conditions: Homo sapiens, 24 hours, mean, control = 1, read-out: cell viability relative to control, MDA-MB-231 (breast cancer)
Procedure: as §1, §2, §3

OVCAR4 = experiment: as above; conditions: Homo sapiens, OVCAR-4, 24 hours, mean, control = 1, read-out: cell viability relative to control, OVCAR4 (ovarian cancer)
Procedure: as §1, §2, §3

BL-41 = experiment: as above; conditions: Homo sapiens, 24 hours, mean, control = 1, read-out: cell viability relative to control, BL-41 (BL)
Procedure: as §1, §2, §3

MEC-1 = experiment: as above; conditions: Homo sapiens, MEC1, 24 hours, mean, control = 1, read-out: cell viability relative to control, MEC-1 (CLL)
Procedure: as §1, §2, §3

MCF-7 = experiment: as above; conditions: Homo sapiens, MCF7, 24 hours, mean, control = 1, read-out: cell viability relative to control, MCF-7 (breast cancer)
Procedure: as §1, §2, §3

A375 = experiment: as above; conditions: Homo sapiens, A-375, 24 hours, mean, control = 1, read-out: cell viability relative to control, A375 (melanoma)
Procedure: as §1, §2, §3

PANC1 = experiment: as above; conditions: Homo sapiens, PANC-1, 24 hours, mean, control = 1, read-out: cell viability relative to control, PANC1 (pancreatic cancer)
Procedure: as §1, §2, §3

primary CLL = experiment: as above; conditions: Homo sapiens, 24 hours, mean, control = 1, read-out: cell viability relative to control, primary CLL
Procedure: as §1, §2, §3

SUDHL = experiment: as above; conditions: 24 hours, mean, control = 1, read-out: cell viability relative to control, SUDHL (DLBCL)
Procedure: as §1, §2, §3

Mino = experiment: as above; conditions: Homo sapiens, 24 hours, mean, control = 1, read-out: cell viability relative to control, Mino (MCL)
Procedure: as §1, §2, §3

MIA-PA-CA = experiment: as above; conditions: Homo sapiens, MIA PaCa-2, 24 hours, mean, control = 1, read-out: cell viability relative to control, MIA-PA-CA (pancreatic cancer)
Procedure: as §1, §2, §3

Nalm16 = experiment: as above; conditions: 24 hours, mean, control = 1, read-out: cell viability relative to control, Nalm16 (ALL)
Procedure: as §1, §2, §3

HEPG2 = experiment: as above; conditions: Homo sapiens, 24 hours, mean, control = 1, read-out: cell viability relative to control, HEPG2 (hepatocellular carcinoma)
Procedure: as §1, §2, §3

PC3 = experiment: as above; conditions: Homo sapiens, PC-3, 24 hours, mean, control = 1, read-out: cell viability relative to control, PC3 (prostate cancer)
Procedure: as §1, §2, §3

HL60 = experiment: as above; conditions: Homo sapiens, HL-60, 24 hours, mean, control = 1, read-out: cell viability relative to control, HL60 (AML)
Procedure: as §1, §2, §3

K562 = experiment: as above; conditions: Homo sapiens, 24 hours, mean, control = 1, read-out: cell viability relative to control, K562 (CML)
Procedure: as §1, §2, §3

primary CLL cells = experiment: Cytotoxicity, TMRE flow cytometry viability, primary CLL cells (Example II.1); conditions: Homo sapiens, CLL cell, 6 hours, TMRE positive cells normalized to control, ratio to PF670462, <1 = higher cytotoxicity than PF670462, read-out: Viability of cells, Compound of formula I (100 μM), relative to PF670462 (100 μM), CLL primary cells
WSU-NHL = experiment: Cytotoxicity on panel of cell lines, TMRE viability (Example II.2); conditions: Homo sapiens, 24 hours, mean, control = 1, read-out: cell viability relative to control, WSU-NHL (FL)
Procedure: as §1, §2, §3

SMILES: Cc1nc(-c2ccc(F)cc2)c(-c2ccnc3[nH]ccc23)n1C1CCCCC1 [Preparative Example 61, 4-(1-cyclohexyl-4-(4-fluorophenyl)-2-methyl-1H-imidazol-5-yl)-1H-pyrrolo[2,3-b]pyridine]
- viability at 100 µM [1]: 2%
- viability at 30 µM (Maver1): 52%
- viability at 30 µM (MDA-MB-231): 46%
- viability at 30 µM (OVCAR4): 77%
- viability at 30 µM (BL-41): 22%
- viability at 30 µM (MEC-1): 41%
- viability at 30 µM (MCF-7): 39%
- viability at 30 µM (A375): 20%
- viability at 30 µM (PANC1): 81%
- viability at 30 µM (primary CLL): 70%
- viability at 30 µM (SUDHL): 24%
- viability at 30 µM (Mino): 28%
- viability at 30 µM (MIA-PA-CA): 58%
- viability at 30 µM (Nalm16): 6%
- viability at 30 µM (HEPG2): 60%
- viability at 30 µM (PC3): 71%
- viability at 30 µM (HL60): 63%
- viability at 30 µM (K562): 80%
- viability at 100 µM (primary CLL cells): 35%

SMILES: Fc1ccc(-c2nc(I)n(C3CCCCC3)c2-c2ccnc3[nH]ccc23)cc1 [Preparative Example 95, 4-(1-cyclohexyl-4-(4-fluorophenyl)-2-iodo-1H-imidazol-5-yl)-1H-pyrrolo[2,3-b]pyridine]
- viability at 100 µM [1]: 1%
- viability at 30 µM (Maver1): 1%
- viability at 30 µM (MDA-MB-231): 2%
- viability at 30 µM (OVCAR4): 7%
- viability at 30 µM (BL-41): 0%
- viability at 30 µM (MEC-1): 0%
- viability at 30 µM (MCF-7): 1%
- viability at 30 µM (A375): 16%
- viability at 30 µM (PANC1): 10%
- viability at 30 µM (primary CLL): 2%
- viability at 30 µM (SUDHL): 0%
- viability at 30 µM (Mino): 0%
- viability at 30 µM (MIA-PA-CA): 1%
- viability at 30 µM (HEPG2): 5%
- viability at 30 µM (PC3): 1%
- viability at 30 µM (HL60): 2%
- viability at 30 µM (K562): 1%
- viability at 30 µM (WSU-NHL): 0%
- viability at 100 µM (primary CLL cells): 2%

SMILES: Fc1ccc(-c2ncn(Cc3ccccc3)c2-c2ccnc3[nH]ccc23)cc1Cl [Preparative Example 140, 4-(1-benzyl-4-(3-chloro-4-fluorophenyl)-1H-imidazol-5-yl)-1H-pyrrolo[2,3-b]pyridine]
- viability at 100 µM [1]: 0%
- viability at 30 µM (Maver1): 7%
- viability at 30 µM (MDA-MB-231): 86%
- viability at 30 µM (OVCAR4): 87%
- viability at 30 µM (BL-41): 44%
- viability at 30 µM (MEC-1): 67%
- viability at 30 µM (MCF-7): 43%
- viability at 30 µM (A375): 80%
- viability at 30 µM (PANC1): 77%
- viability at 30 µM (primary CLL): 60%
- viability at 30 µM (SUDHL): 11%
- viability at 30 µM (Mino): 3%
- viability at 30 µM (MIA-PA-CA): 29%
- viability at 30 µM (HEPG2): 22%
- viability at 30 µM (PC3): 67%
- viability at 30 µM (HL60): 78%
- viability at 30 µM (WSU-NHL): 56%
- viability at 100 µM (primary CLL cells): 1%
